This assay deals with chick chorioallantoic membrane (CAM). Nature of the assay: Chick chorioallantoic membrane (CAM) assay, paclitaxel in methylcellulose disks. The assay is classed as in vivo. The text has this: As noted above, the present invention provides methods and compositions which utilize anti-angiogenic factors. Briefly, within the context of the present invention, anti-angiogenic factors should be understood to include any protein, peptide, chemical, or other molecule, which acts to inhibit vascular growth. A variety of methods may be readily utilized to determine the anti-angiogenic activity of a given factor, including for example, chick chorioallantoic membrane ("CAM") assays. Briefly, as described in more detail below in Examples 2A and 2C, a portion of the shell from a freshly fertilized chicken egg is removed, and a methyl cellulose disk containing a sample of the anti-angiogenic factor to be tested is placed on the membrane. After several days (e.g., 48 hours), inhibition of vascular growth by the sample to be tested may be readily determined by visualization of the chick chorioallantoic membrane in the region surrounding the methyl cellulose disk. Inhibition of vascular growth may also be determined quantitatively, for example, by determining the number and size of blood vessels surrounding the methyl cellulose disk, as compared to a control methyl cellulose disk.
Fertilized, domestic chick embryos were incubated for 3 days prior to shell-less culturing. […] These were then placed into an incubator at 90% relative humidity and 3% CO2 and incubated for 3 days.
The membranes of the 8 day-old shell-less embryo were flooded with 2% glutaraldehyde in 0.1M Na cacodylate buffer; additional fixative was injected under the CAM. After 10 minutes in situ, the CAM was removed and placed into fresh fixative for 2 hours at room temperature. The tissue was then washed overnight in cacodylate buffer containing 6% sucrose. The areas of interest were postfixed in 1% osmium tetroxide for 1.5 hours at 4° C. The tissues were then dehydrated in a graded series of ethanols, solvent exchanged with propylene oxide, and embedded in Spurr resin. Thin sections were cut with a diamond knife, placed on copper grids, stained, and examined in a Joel 1200EX electron microscope. Similarly, […] sections were cut and stained with toluene blue for light microscopy.
This imaging setup was used at a magnification of 160 times which permitted the direct visualization of blood cells within the capillaries; thereby blood flow in areas of interest could be easily assessed and recorded. […] This scale represents the degree of overall inhibition with maximal inhibition represented as a 3 on the avascular gradient scale.

On to `CC(=O)O[C@H]1C(=O)[C@@]2(C)[C@H]([C@H](OC(=O)c3ccccc3)[C@]3(O)C[C@H](OC(=O)[C@H](O)[C@@H](NC(=O)c4ccccc4)c4ccccc4)C(C)=C1C3(C)C)[C@]1(OC(C)=O)CO[C@@H]1C[C@@H]2O` [paclitaxel], for which the avascular zone diameter worked out at 6 mm (48 h exposure, 10μ paclitaxel per 10 ml methylcellulose) and 6 mm (within 48 hours, methylcellulose disks). In addition, the inhibition of angiogenesis result (48 hours after application) is listed as “angiogenesis was inhibited”. The “cells arrested in mitosis in avascular zones” value (CAM histology) is reported as “abundance of cells arrested in mitosis in all three germ layers”. Further, for the setting “after application”, the “onset of inhibition of angiogenesis” value is 9 h. Moreover, where the note is “after application”, the “time without revascularization of avascular zone” value is “at least 7 days”. Further, the avascular gradient scale (within 48 hours, depending on concentration) was 3 (avascularity extending beyond the disk (6 mm in diameter)).

For the origin of these results see patent publication US5886026A, “Anti-angiogenic compositions and methods of use” (priority 1994, dated 1999).
